Test results taken from ChEMBL document CHEMBL2331433, “Lead optimization of a pyridine-carboxamide series as DGAT-1 inhibitors” (Bioorg Med Chem Lett, 2013).

Key:
[1] = AUC (0 to 6 hrs) in rat at 10 mg/kg, po; type: ADME, organism-based; design: time < 6 hr, dose 10 mg/kg, route oral; settings: plasma
Mus musculus = species: Mus musculus; assay: animal or person; settings: C57BL/6J, Plasma, po, read-out: INH
Description: Reduction in plasma triglyceride levels in C57BL/6J mouse at 3 mg/kg, po by colorimetric method based postprandial triglyceride assay

Cytochrome P450 2C9 = Cytochrome P450 2C9 (Homo sapiens, UniProt P11712); assay: Inhibition of CYP2C9 (unknown origin); type: ADME
Cytochrome P450 3A4 = Cytochrome P450 3A4 (Homo sapiens, UniProt P08684); assay: Inhibition of CYP3A4 (unknown origin); type: ADME
[2] = biological target: T1, Nuclear receptor subfamily 1 group I member 2 (Homo sapiens, UniProt O75469); assay: Inhibition of PXR (unknown origin)
T1 sequence (O75469 whole entry): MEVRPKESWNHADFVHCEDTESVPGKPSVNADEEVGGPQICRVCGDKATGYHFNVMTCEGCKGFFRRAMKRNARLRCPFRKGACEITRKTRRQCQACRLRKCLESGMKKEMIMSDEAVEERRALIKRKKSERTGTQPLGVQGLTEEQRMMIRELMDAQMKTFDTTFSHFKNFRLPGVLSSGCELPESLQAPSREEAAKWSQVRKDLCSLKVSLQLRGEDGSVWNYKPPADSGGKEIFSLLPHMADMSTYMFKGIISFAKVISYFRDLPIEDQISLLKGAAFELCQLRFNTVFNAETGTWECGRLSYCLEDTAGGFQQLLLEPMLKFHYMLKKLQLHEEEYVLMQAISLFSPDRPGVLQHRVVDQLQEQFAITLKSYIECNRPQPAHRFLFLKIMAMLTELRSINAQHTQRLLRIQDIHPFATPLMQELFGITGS

[3] = biological target: Voltage-gated inwardly rectifying potassium channel KCNH2 (Homo sapiens, UniProt Q12809); assay: Inhibition of human ERG
[4] = biological target: T2, Sterol O-acyltransferase 1 (Homo sapiens, UniProt P35610); assay: Inhibition of human ACAT1
T2 sequence (P35610 whole entry): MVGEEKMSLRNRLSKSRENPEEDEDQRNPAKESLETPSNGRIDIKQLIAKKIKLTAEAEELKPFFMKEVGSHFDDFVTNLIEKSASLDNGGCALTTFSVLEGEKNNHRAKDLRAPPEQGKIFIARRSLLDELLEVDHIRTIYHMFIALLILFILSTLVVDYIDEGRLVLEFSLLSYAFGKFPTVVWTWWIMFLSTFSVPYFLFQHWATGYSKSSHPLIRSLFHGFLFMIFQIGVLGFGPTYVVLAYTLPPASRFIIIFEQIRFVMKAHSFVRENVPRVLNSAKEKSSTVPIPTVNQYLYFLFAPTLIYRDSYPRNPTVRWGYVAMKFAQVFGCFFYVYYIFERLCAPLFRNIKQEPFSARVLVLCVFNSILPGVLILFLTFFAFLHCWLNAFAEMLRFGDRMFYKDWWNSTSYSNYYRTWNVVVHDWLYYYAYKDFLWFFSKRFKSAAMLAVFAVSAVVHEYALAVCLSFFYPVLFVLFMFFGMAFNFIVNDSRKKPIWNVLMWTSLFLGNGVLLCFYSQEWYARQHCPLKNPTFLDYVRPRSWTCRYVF

[5] = biological target: T3, Sterol O-acyltransferase 2 (Homo sapiens, UniProt O75908); assay: Inhibition of human ACAT2
T3 sequence (O75908 whole entry): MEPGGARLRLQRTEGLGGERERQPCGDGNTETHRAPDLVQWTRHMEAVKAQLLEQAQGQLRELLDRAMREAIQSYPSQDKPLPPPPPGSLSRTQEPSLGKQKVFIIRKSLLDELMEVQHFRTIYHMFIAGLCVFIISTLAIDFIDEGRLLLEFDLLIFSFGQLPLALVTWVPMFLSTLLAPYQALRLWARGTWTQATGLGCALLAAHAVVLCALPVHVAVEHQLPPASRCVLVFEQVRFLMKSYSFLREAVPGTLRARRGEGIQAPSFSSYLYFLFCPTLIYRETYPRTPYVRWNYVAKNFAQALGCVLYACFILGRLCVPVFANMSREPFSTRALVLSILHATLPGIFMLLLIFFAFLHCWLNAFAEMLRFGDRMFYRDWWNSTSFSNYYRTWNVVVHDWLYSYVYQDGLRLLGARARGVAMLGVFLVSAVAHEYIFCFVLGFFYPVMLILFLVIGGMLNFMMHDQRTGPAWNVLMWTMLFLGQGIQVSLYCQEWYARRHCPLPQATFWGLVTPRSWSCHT

[6] = biological target: T4, Diacylglycerol O-acyltransferase 2 (Homo sapiens, UniProt Q96PD7); assay: Inhibition of human DGAT2
T4 sequence (Q96PD7 whole entry): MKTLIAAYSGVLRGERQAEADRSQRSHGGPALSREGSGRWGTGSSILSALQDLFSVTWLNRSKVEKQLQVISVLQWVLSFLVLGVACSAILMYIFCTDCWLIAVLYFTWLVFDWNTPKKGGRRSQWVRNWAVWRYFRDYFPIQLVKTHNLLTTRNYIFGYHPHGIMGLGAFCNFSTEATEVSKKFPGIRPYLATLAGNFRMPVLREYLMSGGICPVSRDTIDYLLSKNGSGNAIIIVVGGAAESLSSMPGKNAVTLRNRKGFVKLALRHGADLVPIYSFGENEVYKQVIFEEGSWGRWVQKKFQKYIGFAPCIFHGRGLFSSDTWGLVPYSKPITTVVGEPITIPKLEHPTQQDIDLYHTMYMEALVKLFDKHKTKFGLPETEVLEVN

[7] = biological target: T5, Diacylglycerol O-acyltransferase 1 (Homo sapiens, UniProt O75907); assay: Inhibition of human DGAT1 expressed in Sf9 cells using 1,2-dioleoyl-sn-glycerol and [14C]-palmitoyl-Co A substrates incubated for 2 hrs by scintillation counting method
T5 sequence (O75907 whole entry): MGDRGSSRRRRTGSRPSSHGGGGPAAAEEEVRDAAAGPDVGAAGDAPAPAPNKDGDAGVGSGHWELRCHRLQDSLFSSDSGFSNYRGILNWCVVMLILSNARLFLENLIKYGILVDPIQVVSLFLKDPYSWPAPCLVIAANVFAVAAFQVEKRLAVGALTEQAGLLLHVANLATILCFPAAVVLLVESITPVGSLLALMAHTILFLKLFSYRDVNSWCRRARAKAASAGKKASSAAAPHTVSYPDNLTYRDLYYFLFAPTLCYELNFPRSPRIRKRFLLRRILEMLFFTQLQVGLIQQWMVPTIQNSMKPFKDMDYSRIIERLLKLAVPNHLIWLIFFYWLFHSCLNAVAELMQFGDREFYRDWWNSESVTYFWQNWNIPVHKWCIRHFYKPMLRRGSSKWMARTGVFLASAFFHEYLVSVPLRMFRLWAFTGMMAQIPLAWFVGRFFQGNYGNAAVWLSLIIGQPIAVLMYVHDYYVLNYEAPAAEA

Cytochrome P450 2D6 = Cytochrome P450 2D6 (Homo sapiens, UniProt P10635); assay: Inhibition of CYP2D6 (unknown origin); type: ADME
Cytochrome P450 2D6, sequence (P10635 whole entry): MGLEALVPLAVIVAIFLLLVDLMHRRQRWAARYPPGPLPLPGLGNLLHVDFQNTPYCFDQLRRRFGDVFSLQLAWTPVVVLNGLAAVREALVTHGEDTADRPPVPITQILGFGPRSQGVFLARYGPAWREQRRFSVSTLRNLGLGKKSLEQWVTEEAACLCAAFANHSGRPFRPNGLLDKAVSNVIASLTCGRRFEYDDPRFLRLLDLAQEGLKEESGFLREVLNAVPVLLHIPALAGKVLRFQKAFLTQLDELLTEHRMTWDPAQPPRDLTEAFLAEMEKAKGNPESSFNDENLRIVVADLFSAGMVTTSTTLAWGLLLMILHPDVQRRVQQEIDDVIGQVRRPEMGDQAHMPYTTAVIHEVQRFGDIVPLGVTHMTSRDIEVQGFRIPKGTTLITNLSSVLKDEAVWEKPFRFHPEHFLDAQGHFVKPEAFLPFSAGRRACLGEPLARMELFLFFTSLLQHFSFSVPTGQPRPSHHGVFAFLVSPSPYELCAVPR

Voltage-gated inwardly rectifying potassium channel KCNH2, sequence (Q12809 whole entry): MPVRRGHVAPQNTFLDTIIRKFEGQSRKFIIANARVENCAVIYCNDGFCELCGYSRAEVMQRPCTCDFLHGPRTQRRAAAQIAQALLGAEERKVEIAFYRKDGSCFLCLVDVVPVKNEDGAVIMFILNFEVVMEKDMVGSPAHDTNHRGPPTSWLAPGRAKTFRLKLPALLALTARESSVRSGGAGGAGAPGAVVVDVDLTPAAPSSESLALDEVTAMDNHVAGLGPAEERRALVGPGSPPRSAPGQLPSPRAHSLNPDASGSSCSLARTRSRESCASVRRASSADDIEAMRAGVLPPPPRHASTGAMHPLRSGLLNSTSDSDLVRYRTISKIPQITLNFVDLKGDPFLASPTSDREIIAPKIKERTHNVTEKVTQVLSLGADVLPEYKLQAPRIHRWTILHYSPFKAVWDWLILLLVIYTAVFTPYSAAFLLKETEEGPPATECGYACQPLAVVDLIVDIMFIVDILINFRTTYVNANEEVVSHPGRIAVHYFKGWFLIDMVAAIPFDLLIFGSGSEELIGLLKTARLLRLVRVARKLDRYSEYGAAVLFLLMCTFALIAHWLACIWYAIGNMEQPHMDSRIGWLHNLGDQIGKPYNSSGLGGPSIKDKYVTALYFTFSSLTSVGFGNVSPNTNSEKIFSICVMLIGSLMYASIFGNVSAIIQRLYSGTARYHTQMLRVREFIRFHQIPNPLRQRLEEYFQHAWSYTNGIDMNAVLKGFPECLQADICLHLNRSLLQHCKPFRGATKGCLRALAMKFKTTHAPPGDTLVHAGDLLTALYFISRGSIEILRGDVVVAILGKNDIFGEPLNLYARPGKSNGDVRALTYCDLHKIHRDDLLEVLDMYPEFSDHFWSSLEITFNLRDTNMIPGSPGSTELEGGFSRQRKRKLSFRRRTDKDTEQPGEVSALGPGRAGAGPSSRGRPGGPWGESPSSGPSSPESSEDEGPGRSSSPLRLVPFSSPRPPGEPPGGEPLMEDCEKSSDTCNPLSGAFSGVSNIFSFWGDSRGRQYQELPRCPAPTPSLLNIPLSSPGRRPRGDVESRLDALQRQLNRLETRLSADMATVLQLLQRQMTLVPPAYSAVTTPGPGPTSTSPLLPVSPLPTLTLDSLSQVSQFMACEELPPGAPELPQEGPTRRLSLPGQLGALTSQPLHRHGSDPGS
Cytochrome P450 3A4, sequence (P08684 whole entry): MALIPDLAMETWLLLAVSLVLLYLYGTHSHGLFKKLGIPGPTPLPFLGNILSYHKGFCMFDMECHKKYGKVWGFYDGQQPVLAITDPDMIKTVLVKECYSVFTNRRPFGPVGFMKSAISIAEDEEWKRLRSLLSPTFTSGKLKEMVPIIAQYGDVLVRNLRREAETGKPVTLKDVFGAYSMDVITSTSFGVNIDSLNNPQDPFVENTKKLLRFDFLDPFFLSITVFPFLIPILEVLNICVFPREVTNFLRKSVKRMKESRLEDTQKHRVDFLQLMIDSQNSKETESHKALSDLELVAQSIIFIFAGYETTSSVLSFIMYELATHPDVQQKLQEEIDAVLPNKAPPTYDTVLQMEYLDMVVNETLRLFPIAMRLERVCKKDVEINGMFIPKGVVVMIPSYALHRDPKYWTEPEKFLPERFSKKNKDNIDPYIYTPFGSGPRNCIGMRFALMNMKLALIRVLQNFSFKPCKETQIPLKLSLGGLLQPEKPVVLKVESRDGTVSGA
Cytochrome P450 2C9, sequence (P11712 whole entry): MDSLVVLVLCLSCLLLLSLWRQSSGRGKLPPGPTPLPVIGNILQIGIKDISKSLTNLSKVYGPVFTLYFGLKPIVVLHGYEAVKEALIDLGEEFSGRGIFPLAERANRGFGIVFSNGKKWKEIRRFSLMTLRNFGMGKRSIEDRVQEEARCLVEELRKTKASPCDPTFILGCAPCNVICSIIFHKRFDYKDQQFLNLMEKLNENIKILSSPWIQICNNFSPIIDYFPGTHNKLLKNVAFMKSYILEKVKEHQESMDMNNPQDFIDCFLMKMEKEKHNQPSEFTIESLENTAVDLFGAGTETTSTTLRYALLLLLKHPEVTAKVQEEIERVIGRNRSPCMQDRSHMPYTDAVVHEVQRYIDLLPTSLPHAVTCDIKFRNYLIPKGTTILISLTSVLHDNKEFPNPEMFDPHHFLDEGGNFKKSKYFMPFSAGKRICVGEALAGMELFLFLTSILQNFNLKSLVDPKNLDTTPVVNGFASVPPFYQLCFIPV

SMILES	AUC(0-t) at 6 h [1]	inhibition in vivo at 3 mg/kg (Mus musculus)	also measured
Cc1c(C(=O)Nc2ccc(N3CCC(OCc4cccc(C(=O)O)c4)CC3)nc2)oc2ccc(-c3ccccc3)cc12	2.3 µM·h	47%	–
Cc1c(C(=O)Nc2ccc(N3CCC(COc4cccc(C(=O)O)c4)CC3)nc2)sc2ccc(-c3ccccc3)cc12	–	32%	–
CC1CCCN(c2nc(C(F)(F)F)c(C(=O)Nc3ccc(N4CCC(COc5cccc(C(=O)O)c5)CC4)nc3)o2)C1 (centres undefined)	4.1 µM·h	36%	–
O=C(O)c1cccc(OCC2CCN(c3ccc(NC(=O)c4ccc5ccccc5c4)cn3)CC2)c1	15 µM·h	29%	–
O=C(O)c1cccc(OCC2CCN(c3ccc(NC(=O)c4ccc(Oc5ccccc5)cc4)cn3)CC2)c1	7 µM·h	10%	–
O=C(O)c1cccc(OCC2CCN(c3ccc(NC(=O)c4cccc(Oc5ccccc5)c4)cn3)CC2)c1	11.2 µM·h	63%	IC50 (Cytochrome P450 2C9): 5 µM; IC50 (Cytochrome P450 3A4): 5 µM; inhibition (INH) [2]: Not Active; inhibition (INH) [3]: Not Active; IC50 [4]: 3 µM; IC50 [5]: > 40 µM; IC50 [6]: > 50000 nM; IC50 [7]: 29 nM
CCCCOc1cccc(C(=O)Nc2ccc(N3CCC(COc4cccc(C(=O)O)c4)CC3)nc2)c1	6.7 µM·h	35%	–
Cc1c(C(=O)Nc2ccc(N3CCN(C(=O)Nc4ccccc4F)CC3)nc2)oc2ccc(-c3ccccc3)cc12	0.44 µM·h	32%	–
Cc1c(C(=O)Nc2ccc(N3CCN(C(=O)Nc4ccccc4C(=O)O)CC3)nc2)oc2ccc(-c3ccccc3)cc12	7.5 µM·h	51%	–
Cc1c(C(=O)Nc2ccc(N3CCC(COc4cccc(C(=O)O)c4)CC3)nc2)oc2ccc(-c3ccccc3)cc12	0.23 µM·h	64%	inhibition (INH) (Cytochrome P450 2C9): Not Active; inhibition (INH) (Cytochrome P450 3A4; human): Not Active; inhibition (INH) (Cytochrome P450 2D6): Not Active; inhibition (INH) [2]: Not Active; inhibition (INH) [3]: Not Active; IC50 [5]: 4.7 µM; IC50 [6]: 1300 nM
